The results in this text go back to publication PMC12430429, “Synthesis, Structure, DNA/BSA Binding, DNA Cleaving, Cytotoxic and SOD Mimetic Activities of Copper(II) Complexes Derived from Methoxybenzylamine Schiff Base Ligands” (Molecules, 2025).

The structures appear in SMILES notation. Where two headings read alike, the source gives them in different places.

One experiment has as its system HepG2 cells. The experiment is described as follows: MTT cytotoxicity assay, HepG2. The format is cell-based, human. To be noted: 72 h.
The next experiment concerns A549 cells. The experiment is described as follows: MTT cytotoxicity assay, A549. The format is cell-based, human. Conditions: 72 h.
Experiment [1] has as its system HEL cells (human lung fibroblast, normal). The experiment is described as follows: MTT cytotoxicity assay, HEL. The format is cell-based. Conditions: 72 h.
Protocol: (§1) The cytotoxicity study of the prepared copper(II) complexes was performed using the MTT assay on human cell lines—A549 (adenocarcinoma human alveolar basal epithelial cell line), HepG2 (human liver cancer cell line) and HEL (human lung fibroblast cell line, normal cells).
(§2) The cytotoxicity of the prepared copper(II) complexes in human cell lines was evaluated using the 3-(4,5-dimethylthiazol-2-yl)-2,5-diphenyltetrazolium bromide (MTT) assay following the protocol by Mosmann. Briefly, A549 (human lung epithelial cells, carcinoma), HepG2 (human liver epithelial cells, carcinoma) and HEL (human lung fibroblast cells, normal) cells were seeded in plastic 96-well plates at a density of 1.5–2 × 10^4 cells per well. […] After the treatment, the samples were washed with phosphate-buffered saline (PBS), followed by 4 h of incubation with 1 mg/mL of MTT. Subsequently, the MTT solution was removed, and the formed formazane solids were dissolved in dimethyl sulfoxide for 30 min. The photometric evaluation (at 540 nm and 690 nm) was carried out using an xMark™ Microplate Absorbance Spectrophotometer (Bio-Rad, Hercules, CA, USA) [88].
(§3) A549 (ATCC® CCL-185), HepG2 (ATCC® HB-8065) and HEL299 (ATCC® CCL-137) cells were obtained from Lambda Life (Bratislava, Slovakia). A549 cells were kept in Dulbecco’s Modified Eagle’s Medium (DMEM) supplemented with 10% fetal bovine serum (FBS) and 1% antibiotics (penicillin and streptomycin). HepG2 cells were kept in Williams medium supplemented with 10% fetal bovine serum (FBS) and 1% antibiotics (penicillin and streptomycin). HEL299 cells were kept in Minimum Essential Medium (MEM) supplemented with 10% fetal bovine serum (FBS), 1% antibiotics (penicillin and streptomycin) and 1% non-essential amino acids (NEAA). The cells were cultured in a humidified atmosphere of 5% CO2 at 37 °C. Once the cells reached approximately 80% confluence, they were harvested and subcultured after trypsin treatment.
Experiment [2] can be described thus: SOD mimetic activity / radical scavenging assay (INT method). The format is biochemical. As for the experimental part:
The radical scavenging ability with respect to the SOD mimetic activity of the prepared complexes was determined by the INT method. This method is based on a competitive reaction with the superoxide anion radical from KO2 between the measured compound (complex) and 2-(4-Iodophenyl)-3-(4-nitrophenyl)-5-phenyl-2H-tetrazolium chloride (INT). INT reacts with the single electron of O2^− and produces blue-green formazane detected as light absorption at 500 nm. Complexes with good antiradical activity also react with O2^−, and as a result of this, less formazane is formed.
The first type of antiradical activity measurements involved the determination of inhibition percent values of electron transfer on INT at specific concentrations (Table 9). Two concentrations were selected to achieve good solubility of the complexes (4 and 1 mM for 4a and 4c, 2 and 1 mM for 4b). The complex 4b dissolved readily at a concentration of 4 mM, but the mixture was very dark, making measurements at 500 nm difficult. Therefore, a less concentrated initial solution was used (2 mM) as the higher concentration. In total, 0.5 mL of the initial solutions was used to prepare sample solutions that also contained INT and KO2 solutions and DMSO with an overall volume of 3.5 mL. The resulting concentrations were c1 = 0.572 mM, c1* = 0.286 mM and c2 = 0.143 mM, respectively. Complexes 4a and 4c once again provided high percentages at c1 (approximately 96–99%) but the activity dropped below 24% at c2, while complex 4b maintained mediocre activity at both concentrations. It seems that the concentration increase had only a small effect on the activity of 4b; something similar was also observed in the DNA cleavage study for complex 4b. The complexes were compared with the model compound cystamine, which was used as a standard for superoxide antiradical scavenging due to the presence of a free […] group, which is also present in glutathione.
To improve the comparability of SOD mimetic activity, IC50 concentrations were determined by performing a series of measurements with decreasing concentration. IC50 values were calculated from the trend function equation as the concentration with 50% inhibition of electron transfer on INT (Table 10).
The method is based on the agent 2-(4-Iodophenyl)-3-(4-nitrophenyl)-5-phenyl-2H-tetrazolium chloride (INT), able to scavenge a superoxide radical anion from KO2. The reaction produces a blue-green formazane, which is detected as light absorption at 500 nm. The radical scavengers (measured complexes) compete with INT for radicals and reduce the formation of formazane and light absorption at 500 nm. Antiradical activity was measured on a Synergy HT BioTek spectrophotometer. DMSO was used as the solvent for the complex and KO2 (saturated solution). The INT initial solution (4 M) was prepared in a sodium tetraborate buffer solution with pH adjusted to 7.1 with HCl.
For each measurement, an initial solution of the sample (0.5 mL) of a specific concentration (4–0.1 mM) was prepared in DMSO. Due to the addition of INT (0.5 mL) and KO2 (0.5 mL) solutions and additional DMSO (2 mL), the concentrations of the measured complexes decreased seven times (3.5 mL of total mixture). Each result was the average value of three parallel measurements expressed with a standard deviation (more information in the Supplementary Materials). For the determination of SOD-IC50, several measurements with decreasing sample concentration were performed. […] A linear trend function of the percentage of inhibition and negative logarithm of concentration was used to calculate the SOD-IC50 value as the concentration with 50% inhibition of INT–formazane formation. […]
Green: 5c 5 mM (S. cerevisiae 1x10^9 cells /ml + 0.5 ml 0.9% NaCl + 0.5 ml 5c + 0.1 ml Resazurin OX) measured in time
S6. SOD Mimetic A ctivity A ssay
For each measurement, an initial solution of the sample of a specific concentration was prepared […]

Protocol for A549 cells: as §1, §2, §3
Protocol for HepG2 cells: as §1, §2, §3

For `N.N.[Cl][Pt][Cl]` [cisplatin, reference compound], the IC50 was determined as 16 ± 3.4 µM in the experiment with HepG2 cells, 26.2 ± 4.1 µM with A549 cells and 68.4 ± 0.3 µM in experiment [1].

With `NCCSSCCN` [cystamine, reference compound], the IC50 is 1700 ± 100 µM in experiment [2] (50% inhibition of electron transfer on INT, read-out: SOD-IC50) and over 1000 µM in experiment [2] (INT method, read-out: concentration of 50% inhibition (SOD-IC50), given as range). Further, the “Activity at c1 (%), inhibition of radical transfer to INT” value in experiment [2] (c1 = 0.572 mM) is 22.1 ± 1.8%. Also, the “Activity at c2 (%), inhibition of radical transfer to INT” value in experiment [2] (c2 = 0.143 mM) stood at 2.0 ± 0.0%.
